# Experimental data published in US5166348A, “Bornyl and isobornyl esters of carboxylic acids of condensed tetrahydroquinoxalines” (Uralsky politekhnichesky institut, priority 1989, dated 1992).
# Where “and” joins values, the source holds several entries; their conditions need not be identical. Identical values can stand only once. Entries after “also recorded” stand apart in the source; their conditions may differ. Like-named read-outs stand apart in the source and are kept apart here.
# Key:
# influenza virus B = type: in vivo, albino mice; conditions: for % of diseased mice and of died mice / % of diseased mice and died mice / Efficiency, % / Elongation of animal life in test group (compared with control) / Mean Incubation / Protection factor / Elongation of animals life in test group compared with control / Mean incubation period / Factor of reduction of number of diseased mice (protection factor): influenza virus B; for Factor of reduction of number of diseased mice (protection factor): compared with control
# [1] = acute toxicity, oral, mongrel albino mice; conditions: mouse, in vivo
# Protocol: Acute toxicity of the proposed compounds 1a through 1e was tested in experiments on mongrel albino mice with oral administration of the drug.
# mice [2] = conditions: mouse, in vivo
# [3] = system: influenza virus C, C(USA)1233/47; type: in vivo, chick embryos
# [4] = system: influenza virus C, C(Leningrad)412/83; type: in vivo, chick embryos
# [5] = system: influenza virus C, C(Ulan-Ude)131/86; type: in vivo, chick embryos
# [6] = system: influenza virus C, C(Leningrad)393/87; type: in vivo, chick embryos
# influenza virus [7] = type: in vivo, mice
# influenza virus [8] = type: in vivo, mice; remark: listed apart in the source
# [9] = system: RS virus (strain Novoshakhtinsky 3080); experiment: reproduction of RS virus in L-41 tissue culture; type: cell-based
# Protocol: (§1) Activity of the proposed compound 1a to the agent causing respiratory syncytial infection was tested. […]
# RS virus = RS virus reproduction in the lungs of infected cotton rats; type: in vivo; conditions: intranasally
# Protocol: as §1
# [10] = system: tick-borne encephalitis virus (Absettar strain); type: in vivo, mongrel albino mice
# influenza virus C = experiment: activity against influenza virus C in chick embryos, summary; type: in vivo
# Excerpt: The activity of the proposed compound 1a against influenza virus C has been studied.
# viruses = experiment: spectrum of antiviral activity, summary
# influenza virus [11] = conditions: given intranasally to pregnant mice + influenza virus
# mice [12] = experiment: toxicity for mice; conditions: compared with remantadine
# [13] = 1 mg/mouse, 24 hours and 1 hour before and 24, 48 and 72 hours after infection
# [14] = 0.2 ml of 0.5% solution into the stomach
compound,measurement,setting,value
"CCC(N)C12CC3CC(CC(C3)C1)C2 (stereo not shown) [adapromine, reference compound]",% of diseased mice and of died mice,"influenza virus B; per os, 1 mg per animal",25% and 12% and 20%
same,"Minimum effective dose against influenza viruses, type B",influenza virus B; influenza virus type B,1.0 mg/mouse
same,"Chemotherapeutic index for influenza viruses, type B","influenza virus B; influenza virus type B, toxicity vs minimum effective dose",6
same,LD50,[1],45 mg/kg
same,Toxicity for mice,mice [2],6 mg/mouse
"CC1=C(C(=O)OC2CC3CCC2(C)C3(C)C)C2Nc3ccccc3N(C)C2O1 (stereo not shown) [compound 1a, isobornyl ester of 2,9-dimethyl-3a,4,9,9a-tetrahydrofuro [2,3-b] quinoxaline-3-carboxylic acid]",% of diseased mice and died mice,influenza virus B; [13],20%
same,"Efficiency, %",influenza virus B; [13],73%
same,Elongation of animal life in test group (compared with control),influenza virus B; [13],2.4 days
same,Mean Incubation,influenza virus B; [13],11.0
same,Protection factor,influenza virus B; [13],3.7
same,% of diseased mice and of died mice,"influenza virus B; per os, 1 mg per animal",20%
same,"Efficiency, %","influenza virus B; per os, 1 mg per animal",73%
same,Elongation of animals life in test group compared with control,"influenza virus B; per os, 1 mg per animal",2.4 days
same,Mean incubation period,"influenza virus B; per os, 1 mg per animal",11.0 days
same,Factor of reduction of number of diseased mice (protection factor),"influenza virus B; per os, 1 mg per animal",3.7
same,"Minimum effective dose against influenza viruses, type B",influenza virus B; influenza virus type B,0.04 mg/mouse
same,Titre of virus (lg) in embryo,[3],2.8 ± 0.4 lg
same,Inhibition of virus reproduction (lg),[3]; vs solvent control,1.7 lg
same,Titre of virus (lg) in embryo,[4],3.5 ± 0.3 lg
same,Inhibition of virus reproduction (lg),[4]; vs solvent control,1.5 lg
same,Titre of virus (lg) in embryo,[5],3.6 ± 0.3 lg
same,Inhibition of virus reproduction (lg),[5]; vs solvent control,1.6 lg
same,Titre of virus (lg) in embryo,[6],3.2 ± 0.3 lg
same,Inhibition of virus reproduction (lg),[6]; vs solvent control,1.3 lg
same,"% of lethal cases among mice after infection of their mothers, in 6 days","influenza virus [7]; given to female mice + virus, 6 days",3%
same,"% of lethal cases among mice after infection of their mothers, in 7 days","influenza virus [7]; given to female mice + virus, 7 days",10%
same,"% of lethal cases among mice after infection of their mothers, in 8 days","influenza virus [7]; given to female mice + virus, 8 days",10%
same,"% of lethal cases among mice after infection of their mothers, in 9 days","influenza virus [7]; given to female mice + virus, 9 days",10%
same,"% of lethal cases among mice after infection of their mothers, in 10 days","influenza virus [7]; given to female mice + virus, 10 days",13%
same,protection of sucklings (in words),influenza virus [7]; given to pregnant or nursing mice,protects the sucklings from trasnplacental infection with the virus or infection from a diseased mouse
same,"protection and growth of nurslings, course of infection (in words)","influenza virus [8]; mouse, in vivo","protects their nurslings from infection and death; moreover, it promotes their normal growth as estimated by gain in weight; also recorded: almost does not differ from the weight of young mice borne from control mice; also recorded: promotes an asymptomatic course of infection in pregnant mice and formation of immunity in their posterity"
same,"Mean weight of suckling mice, g, day 0","influenza virus [8]; plus influenza virus, day 0",1.5 g
same,"Mean weight of suckling mice, g, day 3","influenza virus [8]; plus influenza virus, day 3",2.6 g
same,"Mean weight of suckling mice, g, day 5","influenza virus [8]; plus influenza virus, day 5",3.4 g
same,"Mean weight of suckling mice, g, day 7","influenza virus [8]; plus influenza virus, day 7",3.4 g
same,"Mean weight of suckling mice, g, day 9","influenza virus [8]; plus influenza virus, day 9",3.6 g
same,% of test tubes with degenerated culture,[9]; L-41 tissue culture,17%
same,Intensity of reduction of quantity of test tubes with degenerated cultures,[9]; L-41 tissue culture,0.18
same,Factor of reduction of quantity of test tubes with degenerated cultures,"[9]; L-41 tissue culture, vs 0.9% NaCl solution",5.3
same,effect on reproduction of RS virus (in words),"[9]; tissue culture L-41, strain Novoshakhtinsky 3030 as printed in text",inhibits reproduction of RS virus
same,virus reproduction in the lungs (in words),RS virus,decreases the virus reproduction in the lungs of the animals
same,mean titre of the virus lower than in control group,"RS virus; lungs, vs control group",1.8-2.0 lg
same,"Efficiency, %",[10]; [14],70%
same,Elongation of animal life in group of treated animals,[10]; [14],1.5 days
same,Mean incubation period,[10]; [14],11.4 days
same,% of diseased mice and mice which died,"[10]; 0.2 ml of 0.5% solution into the stomach, 4 h before and 24, 48, 72, 96 h after infection",18.7%
same,Factor of reduction of quantity of diseased mice (protective factor),"[10]; 0.2 ml of 0.5% solution into the stomach, vs physiological saline control",3.3
same,activity against the causative agent of tick-borne encephalitis (in words),"[10]; mouse, in vivo",antiviral activity of the compound against the causative agent of tick-borne encephalitis; also recorded: highly active against the causative agent of tick-borne encephalitis
same,mortality rate,"[10]; test group, control group 62.5%",18.7%
same,"decrease of mortality rate, times less",[10]; test vs control group,3.3 times
same,activity against influenza virus C (in words),influenza virus C,inhibits reproduction of influenza virus C
same,spectrum of antiviral activity (in words),viruses,"most pronounced effect against the virus of the tick-borne encephalitis, epidemic, influenza viruses A, B and C, including those resistant to remantadine, and also the virus causing respiratory syncytial infection"
same,Toxicity for mice,mice [2],16 mg/mouse
same,"Mortality rate among suckling mice, %, 4 days after infection",influenza virus [11]; 4 days,0%
same,"Mortality rate among suckling mice, %, 7 days after infection",influenza virus [11]; 7 days,7%
same,"Mortality rate among suckling mice, %, 8 days after infection",influenza virus [11]; 8 days,23%
same,"Mortality rate among suckling mice, %, 11 days after infection",influenza virus [11]; 11 days,23%
same,"toxicity lower than that of remantadine, times",mice [12],2.5-3 times
"CCN1c2ccccc2NC2C(C(=O)OC3CC4CCC3(C)C4(C)C)=C(C)OC21 (stereo not shown) [compound 1b, isobornyl ester of 2-methyl-9-ethyl-3a,4,9,9a-tetrahydrofuro [2,3-b] quinoxaline-3-carboxylic acid]",% of diseased mice and of died mice,"influenza virus B; per os, 1 mg per animal",27%
same,"Efficiency, %","influenza virus B; per os, 1 mg per animal",65%
same,Elongation of animals life in test group compared with control,"influenza virus B; per os, 1 mg per animal",2.2 days
same,Mean incubation period,"influenza virus B; per os, 1 mg per animal",10.0 days
same,Factor of reduction of number of diseased mice (protection factor),"influenza virus B; per os, 1 mg per animal",2.9
"CCN1c2ccccc2NC2C(C(=O)OC3CC4CCC3(C)C4(C)C)=C(C)OC21 (stereo not shown) [compound 1c, bornyl-2-methyl-9-ethyl-3a,4,9,9a-tetrahydrofuro [2,3-b] quinoxaline-3-carboxylate]",% of diseased mice and of died mice,"influenza virus B; per os, 1 mg per animal",25%
same,"Efficiency, %","influenza virus B; per os, 1 mg per animal",64%
same,Elongation of animals life in test group compared with control,"influenza virus B; per os, 1 mg per animal",2.4 days
same,Mean incubation period,"influenza virus B; per os, 1 mg per animal",11.0 days
same,Factor of reduction of number of diseased mice (protection factor),"influenza virus B; per os, 1 mg per animal",2.8
"CC(N)C12CC3CC(CC(C3)C1)C2 (stereo not shown) [remantadine, reference compound]",% of diseased mice and died mice,influenza virus B; [13],20%
same,"Efficiency, %",influenza virus B; [13],73%
same,Elongation of animal life in test group (compared with control),influenza virus B; [13],2.3 days
same,Mean Incubation,influenza virus B; [13],10.9
same,Protection factor,influenza virus B; [13],3.7
same,LD50,[1],640 mg/kg
same,Toxicity for mice,mice [2],6 mg/mouse
"bornyl-3a,5-dimethyl-2-phenyl-3a,4,4a,5,10,10a-hexahydro-1,3,4-thiadiazole[2,3-a] quinoxaline (2,3-d) pyrrole-4-carboxylate [compound 1d]",% of diseased mice and of died mice,"influenza virus B; per os, 1 mg per animal",20%
same,"Efficiency, %","influenza virus B; per os, 1 mg per animal",72%
same,Elongation of animals life in test group compared with control,"influenza virus B; per os, 1 mg per animal",2.5 days
same,Mean incubation period,"influenza virus B; per os, 1 mg per animal",11.0 days
same,Factor of reduction of number of diseased mice (protection factor),"influenza virus B; per os, 1 mg per animal",3.6
"isobornyl 3a,5-dimethyl-2-phenyl-3a,4,4a,5,10,10a-hexahydro-1,3,4-thiadiazole [2,3-a] quinoxaline [2,3-d]-pyrrole-4-carboxylate [compound 1e]",% of diseased mice and of died mice,"influenza virus B; per os, 1 mg per animal",21%
same,"Efficiency, %","influenza virus B; per os, 1 mg per animal",71%
same,Elongation of animals life in test group compared with control,"influenza virus B; per os, 1 mg per animal",2.4 days
same,Mean incubation period,"influenza virus B; per os, 1 mg per animal",10.9 days
same,Factor of reduction of number of diseased mice (protection factor),"influenza virus B; per os, 1 mg per animal",3.4
